Data set [1] has as its system MDA-MB-435. The experiment in a line: Cellular uptake in doxorubicin-resistant multidrug-resistant human MDA-MB-435 cells at 5 uM after 2 hrs by FACS analysis relative to doxorubicin. Particulars: mda-mb-435, 2 h; call rule not given here. In kind it is ADME, cell-based.
Data set [2] has as its system MDA-MB-435. The data set is described as follows: Ratio of IC50 for doxorubicin-resistant multidrug-resistant human MDA-MB-435 cells to IC50 for doxorubicin-resistant multidrug-resistant human MDA-MB-435 cells in presence of verapamil. It counts as functional.
Data set [3] relates to MDA-MB-435. The data set is described as follows: Ratio of IC50 for human MDA-MB-435 cells to IC50 for human MDA-MB-435 cells in presence of verapamil. It counts as functional.
Data set [4] relates to MDA-MB-435. The experiment in a line: Cytotoxicity against doxorubicin-resistant multidrug-resistant human MDA-MB-435 cells after 48 hrs by MTT assay in presence of verapamil. It counts as functional, cell-based. Particulars: MDA-MB-435, 48 h. On the technique in general: Tetrazolium assays rely on reduction of a dye to a coloured formazan, in cell work by metabolically active cells.

Data set [5] has as its system MDA-MB-435. The experiment in a line: Cytotoxicity against human MDA-MB-435 cells after 48 hrs by MTT assay in presence of verapamil. In kind it is functional, cell-based. Particulars: MDA-MB-435, 48 h.
The subject of data set [6] is HUVEC. The data set is described as follows: Cytotoxicity against human HUVEC cells after 48 hrs by MTT assay. In kind it is cell-based.
Data set [7] relates to MCF-10A. The experiment in a line: Cytotoxicity against human MCF10A cells after 48 hrs by MTT assay. It counts as cell-based.
Data set [8] deals with MDA-MB-435. The data set is described as follows: Cytotoxicity against doxorubicin-resistant multidrug-resistant human MDA-MB-435 cells after 48 hrs by MTT assay. It counts as functional, cell-based. Particulars: MDA-MB-435, 48 h.
For data set [9], the system named is MDA-MB-435. The experiment in a line: Cytotoxicity against human MDA-MB-435 cells after 48 hrs by MTT assay. Particulars: MDA-MB-435, 48 h. It counts as functional, cell-based.
Data set [10] concerns MCF7. The data set is described as follows: Cytotoxicity against human MCF7 cells after 48 hrs by MTT assay. In kind it is functional, cell-based. Particulars: MCF7, 48 h.
In data set [11] the test system is MCF7. The experiment in a line: Cellular uptake in human MCF7 cells at 5 uM after 2 hrs by FACS analysis in presence of NH2-WxEYAAQkFL-CONH2. It counts as ADME, cell-based. The following applies: mcf7, 2 h.
Data set [12] has as its system HUVEC. The data set is described as follows: Cellular uptake in human HUVEC cells at 5 uM after 2 hrs by FACS analysis. It counts as ADME, cell-based. For orientation: Flow cytometry measures light scatter and fluorescence of single cells or particles in a stream.
Data set [13] relates to MCF-10A. The experiment in a line: Cellular uptake in human MCF10A cells at 5 uM after 2 hrs by FACS analysis. It counts as ADME, cell-based.
In data set [14] the test system is MCF7. The data set is described as follows: Cellular uptake in human MCF7 cells at 5 uM after 2 hrs by FACS analysis relative to control. It counts as ADME, cell-based. Particulars: mcf7, 2 h.
The test system of data set [15] is MDA-MB-435. The experiment in a line: Cellular uptake in human MDA-MB-435 cells at 5 uM after 2 hrs by FACS analysis relative to control. In kind it is ADME, cell-based. The following applies: mda-mb-435, 2 h.
For data set [16], the system named is MDA-MB-435. The data set is described as follows: Cytotoxicity against doxorubicin-resistant multidrug-resistant human MDA-MB-435 cells after 48 hrs by MTT assay relative to doxorubicin. It counts as functional.
For data set [17], the system named is MDA-MB-435. The data set is described as follows: Cellular uptake in doxorubicin-resistant multidrug-resistant human MDA-MB-435 cells at 5 uM after 2 hrs by FACS analysis. Particulars: mda-mb-435, 2 h. It counts as ADME, cell-based.
Data set [18] is described as follows: Half life in human serum at 100 uM after 48 hrs by RP-HPLC analysis. It counts as ADME, cell-free.

These results are taken from ChEMBL document CHEMBL2429809, “Novel peptide-doxorubucin conjugates for targeting breast cancer cells including the multidrug resistant cells” (J Med Chem, 2013).

Where only a bound is given, the exact number is not on record here.

The IC50 is the concentration that inhibits the measured activity by half. For the compound `CCCC[C@@H](NC(=O)[C@@H](N)Cc1c[nH]c2ccccc12)C(=O)N[C@@H](CCC(=O)O)C(=O)N[C@@H](C)C(=O)N[C@@H](C)C(=O)N[C@@H](Cc1ccc(O)cc1)C(=O)N[C@@H](CCC(N)=O)C(=O)N[C@H](CCCCNC(=O)CCCC(=O)OCC(=O)[C@]1(O)Cc2c(O)c3c(c(O)c2[C@@H](O[C@H]2C[C@H](N)[C@H](O)[C@H](C)O2)C1)C(=O)c1c(OC)cccc1C3=O)C(=O)N[C@@H](Cc1ccccc1)C(=O)N[C@@H](CC(C)C)C(N)=O`, in the data set on MDA-MB-435 [1], the “fold change (FC)” value was found to be 3. Moreover, the “Ratio IC50” value in the data set with MDA-MB-435 [2] and with MDA-MB-435 [3] was 1.3 each time. Further, the IC50 in the data set on MDA-MB-435 [4] was found to be 14.4 µM; with MDA-MB-435 [5] it was 15.5 µM; in the data set on HUVEC [6], 50.9 µM; with MCF-10A [7], 40.5 µM; in the data set on MDA-MB-435 [8] it was 19.7 µM; with MDA-MB-435 [9] it was 18.6 µM. The compound further displayed an IC50 in the data set on MCF7 [10] of 19.1 µM. Further, the Drug uptake result in the data set with MCF7 [11], in the data set on HUVEC [12], in the data set with MCF-10A [13], with MCF7 [14] and with MDA-MB-435 [15] was “Active” each time.
`COc1cccc2c1C(=O)c1c(O)c3c(c(O)c1C2=O)C[C@@](O)(C(=O)CO)C[C@@H]3O[C@H]1C[C@H](N)[C@H](O)[C@H](C)O1` [DOXORUBICIN]: the IC50 in the data set with MDA-MB-435 [4] is 1.56 µM; in the data set with MDA-MB-435 [5], 0.15 µM; in the data set with HUVEC [6], 1.1 µM; in the data set with MCF-10A [7] it was 1.2 µM; with MDA-MB-435 [8], 21.9 µM; in the data set with MDA-MB-435 [9], 0.6 µM. The Drug uptake entry in the data set with MCF7 [11] and in the data set with HUVEC [12] was “Active” each time.
Usually half-life stands for how long it takes for the measured level to halve. The low end stands for fast loss, the high end for slow loss. Turning to `CCCC[C@@H](NC(=O)[C@@H](N)Cc1c[nH]c2ccccc12)C(=O)N[C@@H](CCC(=O)O)C(=O)N[C@@H](C)C(=O)N[C@@H](C)C(=O)N[C@@H](Cc1ccc(O)cc1)C(=O)N[C@@H](CCC(N)=O)C(=O)N[C@H](CCCCNC(=O)CCCC(=O)N[C@H]1C[C@H](O[C@H]2C[C@](O)(C(=O)CO)Cc3c(O)c4c(c(O)c32)C(=O)c2c(OC)cccc2C4=O)O[C@@H](C)[C@H]1O)C(=O)N[C@@H](Cc1ccccc1)C(=O)N[C@@H](CC(C)C)C(N)=O`, the “fold change (FC)” value with MDA-MB-435 [1] is 4.7. Further, the “Ratio IC50” value in the data set on MDA-MB-435 [16] was greater than 4; in the data set on MDA-MB-435 [2], 1.3; with MDA-MB-435 [3], 1.3. For the same compound, the 50% inhibitory concentration (IC50) with MDA-MB-435 [4] worked out at 3.1 µM; with MDA-MB-435 [5], 0.83 µM; with HUVEC [6], 42.3 µM; in the data set with MCF-10A [7], 35.1 µM; in the data set with MDA-MB-435 [8], 5.4 µM; in the data set on MDA-MB-435 [9], 1.5 µM. In the data set with MCF7 [10], this compound returned a concentration for half-maximal inhibition (IC50) of 0.9 µM. Moreover, the Drug uptake entry with MCF7 [11], in the data set with MDA-MB-435 [17], in the data set on HUVEC [12], in the data set on MCF-10A [13], with MCF7 [14] and with MDA-MB-435 [15] was “Active” in each case. Further, the half-life at 100 µM in [18] is 2 h.
